Reference: US11389415B2, “Methods of regulating cannabinoid receptor activity-related disorders and diseases” (The United States of America as represented by the …, priority 2012, dated 2022)

Tested on: rat C6 glioma xenografts
Experiment: Gene expression profiling (microarray, GO term and PAGE gene set analysis) in rat C6 glioma xenografts
Type: in vivo, mouse
Conditions: for Z score, GO0000775 Chromosome pericentric region / Z score, GO0004527 Exonuclease activity / Z score, GO0005634 Nucleus / Z score, GO0006260 DNA replication / Z score, GO0006270 DNA replication initiation / Z score, GO0007049 Cell cycle / Z score, GO0007051 Spindle organization and biogenesis / Z score, GO0007067 Mitosis / Z score, GO0048015 Phosphoinositide mediated signaling / Z score, GO0051301 Cell division: MNF_Crtl
Experimental: Analysis of gene expression in rat C6 glioma xenografts. Total RNA was isolated from rat C6 glioma xenografts harvested from vehicle and MNF-treated mice (n=3 per group, cohort 1). This analysis was repeated in a second cohort of animals (n=3 per group, cohort 2). Total cellular RNA was extracted using an RNeasy plus mini kit (QIAGEN, Valencia, Calif.), and its quality was assessed using an Agilent BioAnalyzer using RNA 6000 Nano Chips (Agilent Technologies, Santa Clara, Calif.). Transcriptional profiling was determined using Illumina Sentrix BeadChips (Illumina, San Diego, Calif.). Total RNA was used to generate biotin-labeled cRNA with the Illumina TotalPrep RNA Amplification Kit. In short, 0.5 ug of total RNA was first converted into single-stranded cDNA with reverse transcriptase using an oligo-dT primer containing the T7 RNA polymerase promoter site and then copied to produce double-stranded cDNA molecules. The double-stranded cDNA was cleaned and concentrated with the supplied columns and used in an overnight in-vitro transcription reaction where single-stranded RNA (cRNA) was generated incorporating biotin-16-UTP. A total of 0.75 μg of biotin-labeled cRNA was hybridized at 58° C. for 16 hours to Illumina's Sentrix Rat Ref-12 Expression BeadChips. Each BeadChip has ˜22,000 well-annotated RefSeq transcripts with approximately 30-fold redundancy. The arrays were washed, blocked and the labeled cRNA was detected by staining with streptavidin-Cy3. Hybridized arrays were scanned using an Illumina BeadStation 500× Genetic Analysis Systems scanner and the image data extracted using Illumina's GenomeStudio software, version 1.6.1. For statistical analysis, the expression data were filtered to include only probes with a consistent signal on each chip and an Illumina detecton p value <0.02.
Correlation analysis, sample clustering analysis and principal component analysis was performed to identify/exclude any possible outliers. The resulting dataset was next analyzed with DIANE 6.0, a spreadsheet-based microarray analysis program using value statistics for Z-Score reliability below 0.05; and mean background-corrected signal intensity greater than zero.
Gene set enrichment analysis use gene expression values or gene expression change values for all of the genes in the microarray. Parametric analysis of gene set enrichment (PAGE) was used using the WEB-PAGE GSA tool for gene set analysis. Gene Sets include the MSIG database, Gene Ontology Database, GAD human disease and mouse phenotype gene sets were used to explore functional level changes. Gene-gene interaction was also analyzed using the INGENUITY® Pathway Analysis (IPA) system (INGENUITY® Systems).

[1] = Table 9, gene sets influenced by MNF treatment

COc1ccc(C[C@@H](C)NC[C@H](O)c2cc(O)cc(O)c2)c2ccccc12 [(R,R′)-MNF, (R,R′)-4′-methoxy-1-naphthylfenoterol]
Z score, SHEPARD_GENES_COMMON_BW_CB_MO (MNF_Control, cohort 2): −4.3867
Z score, STEMCELL_NEURAL_UP (MNF_Control, cohort 2): −5.0064
Z score, TARTE_MATURE_PC (MNF_Control, cohort 2): 5.3293
Z score, TARTE_PLASMA_BLASTIC (MNF_Control, cohort 2): −6.7905
Z score, VERNELL_PRB_CLSTR1 (MNF_Control, cohort 2): −6.5636
Z score, YU_CMYC_UP (MNF_Control, cohort 2): −7.3723
Z score, ZHAN_MM_CD138_PR_VS_REST (MNF_Control, cohort 2): −9.0080
Z score, ADIP_DIFF_CLUSTERS (MNF_Control, combined cohorts): −7.9684
Z score, ATRBRCAPATHWAY (MNF_Control, combined cohorts): −3.4407
Z score, BRCA_PROGNOSIS_NEG (MNF_Control, combined cohorts): −6.5976
Z score, BRENTANI_REPAIR (MNF_Control, combined cohorts): −4.2370
Z score, CANCER_UNDIFFERENTIATED_META_UP (MNF_Control, combined cohorts): −7.7981
Z score, CELL_CYCLE (MNF_Control, combined cohorts): −8.6730
Z score, CELL_CYCLE_KEGG (MNF_Control, combined cohorts): −7.8764
Z score, CMV_IE86_UP (MNF_Control, combined cohorts): −8.5032
Z score, CROONQUEST_IL6_STARVE_UP (MNF_Control, combined cohorts): −10.7172
Z score, CROONQUIST_IL6_RAS_DN (MNF_Control, combined cohorts): −9.7453
Z score, DAC_FIBRO_DN (MNF_Control, combined cohorts): −6.4794
Z score, DNA_REPLICATION_REACTOME (MNF_Control, combined cohorts): −7.3185
Z score, DOX_RESIST_GASTRIC_UP (MNF_Control, combined cohorts): −10.1840
Z score, E2F1_DNA_UP (MNF_Control, combined cohorts): −5.4288
Z score, GAY_YY1_DN (MNF_Control, combined cohorts): −7.4972
Z score, GOLDRATH_HP (MNF_Control, combined cohorts): −3.4750
Z score, HDACI_COLON_BUT12 HRS_UP (MNF_Control, combined cohorts): 5.8481
Z score, HDACI_COLON_BUT16HRS_UP (MNF_Control, combined cohorts): 4.8024
Z score, HDACI_COLON_BUT24HRS_UP (MNF_Control, combined cohorts): 4.4492
Z score, HDACI_COLON_TSABUT_UP (MNF_Control, combined cohorts): 5.2313
Z score, HIPPOCAMPUS_DEVELOPMENT_POSTNATAL (MNF_Control, combined cohorts): 11.4209
Z score, HOFFMANN_BIVSBII_BI_TABLE2 (MNF_Control, combined cohorts): −8.5773
Z score, HYPOPHYSECTOMY_RAT_DN (MNF_Control, combined cohorts): 5.3951
Z score, IDX_TSA_UP_CLUSTER3 (MNF_Control, combined cohorts): −11.3388
Z score, IRITANI_ADPROX_LYMPH (MNF_Control, combined cohorts): −5.7142
Z score, KAMMINGA_EZH2_TARGETS (MNF_Control, combined cohorts): −8.8163
Z score, KENNY_WNT_UP (MNF_Control, combined cohorts): −6.9481
Z score, LAMB_CYCLIN_D3_GLOCUS (MNF_Control, combined cohorts): −5.0503
Z score, LEE_TCELLS2_UP (MNF_Control, combined cohorts): −6.9464
Z score, LEE_TCELLS3_UP (MNF_Control, combined cohorts): −10.3427
Z score, LI_FETAL_VS_WT_KIDNEY_DN (MNF_Control, combined cohorts): −10.4609
Z score, MANALO_HYPOXIA_DN (MNF_Control, combined cohorts): −6.7155
Z score, MIDDLEAGE_DN (MNF_Control, combined cohorts): −8.2457
Z score, MOREAUX_TACI_HI_IN_PPC_UP (MNF_Control, combined cohorts): −4.9180
Z score, MOREAUX_TACI_HI_VS_LOW_DN (MNF_Control, combined cohorts): −5.1872
Z score, OLDAGE_DN (MNF_Control, combined cohorts): −8.1220
Z score, P21_P53_ANY_DN (MNF_Control, combined cohorts): −8.8530
Z score, PEART_HISTONE_DN (MNF_Control, combined cohorts): −5.7817
Z score, PODI_KO_UP (MNF_Control, combined cohorts): −5.1416
Z score, PRMT5_KD_UP (MNF_Control, combined cohorts): −8.9362
Z score, REN_E2F1_TARGETS (MNF_Control, combined cohorts): −4.4393
Z score, SASAKI_ATL_UP (MNF_Control, combined cohorts): −7.2897
Z score, SASAKI_TCELL_LYMPHOMA_VS_CD4_UP (MNF_Control, combined cohorts): −7.2897
Z score, SERUM_FIBROBLAST_CELLCYCLE (MNF_Control, combined cohorts): −12.2668
Z score, SHEPARD_BMYB_MORPHOLINO_DN (MNF_Control, combined cohorts): −6.0639
Z score, SHEPARD_CRASH_AND_BURN_MUT_VS_WT_DN (MNF_Control, combined cohorts): −5.5788
Z score, SHEPARD_GENES_COMMON_BW_CB_MO (MNF_Control, combined cohorts): −5.7440
Z score, STEMCELL_NEURAL_UP (MNF_Control, combined cohorts): −7.2833
Z score, TARTE_MATURE_PC (MNF_Control, combined cohorts): 6.8026
Z score, TARTE_PLASMA_BLASTIC (MNF_Control, combined cohorts): −8.3308
Z score, VERNELL_PRB_CLSTR1 (MNF_Control, combined cohorts): −7.4144
Z score, YU_CMYC_UP (MNF_Control, combined cohorts): −8.4501
Z score, ZHAN_MM_CD138_PR_VS_REST (MNF_Control, combined cohorts): −10.7002
Z score, GO0000775 Chromosome pericentric region (Combined): −6.3081
Z score, GO0004527 Exonuclease activity (Combined): −5.8765
Z score, GO0005634 Nucleus (Combined): −9.4291
Z score, GO0006260 DNA replication (Combined): −7.3157
Z score, GO0006270 DNA replication initiation (Combined): −5.0248
Z score, GO0007049 Cell cycle (Combined): −9.3510
Z score, GO0007051 Spindle organization and biogenesis (Combined): −6.7039
Z score, GO0007067 Mitosis (Combined): −10.1574
Z score, GO0048015 Phosphoinositide mediated signaling (Combined): −5.2545
Z score, GO0051301 Cell division (Combined): −10.1585
Z score, GO0000775 Chromosome pericentric region (Set 1): −6.7644
Z score, GO0004527 Exonuclease activity (Set 1): −2.5829
Z score, GO0005634 Nucleus (Set 1): −2.1680
Z score, GO0006260 DNA replication (Set 1): −4.7695
Z score, GO0006270 DNA replication initiation (Set 1): −4.0283
Z score, GO0007049 Cell cycle (Set 1): −5.1361
Z score, GO0007051 Spindle organization and biogenesis (Set 1): −4.6166
Z score, GO0007067 Mitosis (Set 1): −7.5266
Z score, GO0048015 Phosphoinositide mediated signaling (Set 1): −4.2781
Z score, GO0051301 Cell division (Set 1): −6.9059
Z score, GO0000775 Chromosome pericentric region (Set 2): −3.5296
Z score, GO0004527 Exonuclease activity (Set 2): −5.4622
Z score, GO0005634 Nucleus (Set 2): −9.9454
Z score, GO0006260 DNA replication (Set 2): −6.0446
Z score, GO0006270 DNA replication initiation (Set 2): −3.7775
Z score, GO0007049 Cell cycle (Set 2): −8.0162
Z score, GO0007051 Spindle organization and biogenesis (Set 2): −5.2288
Z score, GO0007067 Mitosis (Set 2): −7.6563
Z score, GO0048015 Phosphoinositide mediated signaling (Set 2): −3.5441
Z score, GO0051301 Cell division (Set 2): −8.0673
Z score, CELL_CYCLE [1]: −7.4222
Z score, CROONQUIST_IL6_STARVE_UP [1]: −9.0059
Z score, HDACI_COLON_BUT12 HRS_UP [1]: 3.6676
Z score, HIPPOCAMPUS_DEVELOPMENT_POSTNATAL [1]: 10.3511
Z score, HYPOPHYSECTOMY_RAT_DN [1]: 3.9294
Z score, IDX_TSA_UP_CLUSTER3 [1]: −10.1593
Z score, P21_P53_ANY_DN [1]: −7.4300
Z score, SERUM_FIBROBLAST_CELLCYCLE [1]: −10.6997
Z score, TARTE_MATURE_PC [1]: 5.3293
